Results as given in US9693974B2, “Antibacterial and antifungal biphenylyl compounds” (CHRISTIAN-ALBRECHTS-UNIVERSITY OF KIEL, priority 2010, dated 2017).
In brackets after ≈: the same amount, converted by molar mass. Structures can show the parent of a compound that is named as a salt. Where two headings read alike, the source gives them in different places.

Key:
Assay in all cases: MIC, Bouillon-microdilution method (CLSI M07-A8)
Type in all cases: cell-based
[1] = system: Staphylococcus aureus ATCC 6538; conditions: for MIC: Staphylococcus aureus
Description: (§1) The respective determination is valid if in the growth control (DMSO and medium) a distinct turbidity is observed.
(§2) The minimum inhibitory concentrations of the substances of the present inventions against various infectious germs, i.a. against methicillin-resistant Staphylococcus aureus were determined with the Bouillon-microdilution method in accordance with the procedure M07-A8 of the Clinical and Laboratory Standards Institute (Pennsylvania, USA).
(§3) (Source: German Collection of Microorganisms and Cell Cultures, Braunschweig) Enterococcus hirae ATCC 10541, Staphylococcus epidermidis ATCC 12228, Staphylococcus aureus ATCC 6538, methicillin-resistant Staphylococcus aureus ATCC 33592, Bacillus cereus ATCC 11778, Candida albicans ATCC 10231, Aspergillus niger ATCC 16404, Aspergillus fumigatus ATCC 9197.
(§4) In sterile tubes with titled agar, bacteria with casein peptone soy flour peptone agar (Merck, Art. No. 1.05458.05), incubation 18-24 h at 34° C., fungi with Sabouraud 4% Glucose Agar (Merck 1.05438.05), incubation Candida albicans 18-24 h at 34° C., mold fungous 7 days at 22° C.
(§5) Suspensions are produced on titled agar by floating with 0.9% sterile NaCl solution. The turbidity is adjusted photometrically by dilution according to the turbidity of the Mc Farland-standard 0.5.
(§6) Subsequently, the bacterial suspensions are diluted in the ratio of 1:10, the Pi-suspension of the fungi remains undiluted.
(§7) The number of the germs in the inocula is adjusted so that there are approximately 5×10^5 colony forming units per milliliter after inoculation of the test wells.
(§8) The amount of a substance to be tested in a trial is weighed out on a microbalance with an Eppendorf reaction vessel and dissolved in an appropriate volume of dimethyl sulfoxide so that the concentration of the resulting solution corresponds to the 21 times highest final test concentration. The stock solution is subsequently diluted in a serial in a ratio respectively 1 ad 2 with DMSO resulting in seven different concentrations in the wells of a predilution plate. In the eighth well only DMSO is pipetted.
(§9) In each of the 96 wells of a test plate 95 μl sterile Mueller Hinton II medium (Cation adjusted, BBL™ Ref. 212322) for bacteria and sterile Sabouraud 2% glucose medium (DIFCO™ Ref 238230) for fungis are added with an eight-channel pipette (Socorex 50-200 μL). 5 μL of the solution to be tested are pipetted in each of the test wells of the plate (8-channel pipette, Eppendorf-Research, 5-10 μL). They are transferred in this way from the pre-dilutions that in the horizontal row A the highest concentration and respectively a half reduced concentration of the substance to be tested until row G and in row H only DMSO is pipetted. Subsequently, 5 μL of the inocula are pipetted in the test wells using an eight-channel pipette. In one test at least two, maximum four rows are inoculated with the same substance and the same germs. The concentrations of the test substance are each 128 μg/mL to 2 μg/mL.
(§10) The prepared plates are converted to a microtiter plate reader (Anthos ht111) which is connected to a printer. In this device, the plates are shaken for 60 seconds with high frequency before each measurement and the absorption of the probes is measured at the wavelength of light of 590 nm.
(§11) After determination of the initial values the plates are incubated at 34° C. for 16 to 20 h for bacteria and Candida albicans, and 68 to 72 h at 34° C. for mould fungis.
(§12) Following this the micro titer plates are measured again as described above.
(§13) The minimum inhibitory concentration is the lowest concentration of the tested substance which is able to inhibit the complete growth of the particular test organism, i.e. where after incubation no turbidity is measurable. The particular determination is valid when in the growth control (DMSO and medium) a distinct turbidity is observed.

[2] = system: methicillin-resistant Staphylococcus aureus ATCC 33592; conditions: for MIC: ATCC 33592 / MRSA, read-out: MIC values MRSA
Description: as §1, §2, §3, §4, §5, §6, §7, §8, §9, §10, §11, §12, §13

[3] = system: Staphylococcus epidermidis ATCC 12228; conditions: ATCC12228, Staphylococcus epidermis, read-out: MIC values S.e.
Description: as §1, §2, §3, §4, §5, §6, §7, §8, §9, §10, §11, §12, §13

Pseudomonas aeroginosa = conditions: read-out: MIC values P.a.
Description: as §1, §2, §4, §5, §6, §7, §8
as §9, with “Subsequently, 5 μL of the inocula are pipetted in the test wells using an eight-channel pipette. In one test at least two, maximum four rows are inoculated with the same substance and the same germs. The concentrations of the test substance are each 128 μg/mL to 2 μg/mL.” left out
(§14) The prepared plates are converted to a microtiter plate reader (Anthos ht111) which is connected to a printer. In this device, the plates are shaken for 60 seconds with high frequency before each measurement and the absorption of the probes is measured at the wavelength of light of 590 nm. […]
(§15) Following this the micro titer plates are measured again as described above. […]

Escherichia coli = conditions: read-out: MIC values E.c.
Description: as §1, §2, §4, §5, §6, §7, §8
as §9, with “Subsequently, 5 μL of the inocula are pipetted in the test wells using an eight-channel pipette. In one test at least two, maximum four rows are inoculated with the same substance and the same germs. The concentrations of the test substance are each 128 μg/mL to 2 μg/mL.” left out
as §14, §15

[4] = system: Enterococcus hirae ATCC 10541; conditions: ATCC10541, read-out: MIC values E.h.
Description: as §1, §2, §3, §4, §5, §6, §7, §8, §9, §10, §11, §12, §13

[5] = system: Aspergillus niger ATCC 16404; conditions: ATCC16404, read-out: MIC values A.n.
Description: as §1, §2, §3, §4, §5, §6, §7, §8, §9, §10, §11, §12, §13

[6] = system: Aspergillus fumigatus ATCC 9197; conditions: ATCC9197, read-out: MIC values A.f.
Description: as §1, §2, §3, §4, §5, §6, §7, §8, §9, §10, §11, §12, §13

[7] = system: Candida albicans ATCC 10231
Description: as §1, §2, §3, §4, §5, §6, §7, §8, §9, §10, §11, §12, §13

[8] = ATCC6538, number of tests in brackets, rounded average of logarithmic endpoints, read-out: MIC values S.a.
[9] = methicillin-resistant Staphylococcus aureus, number of tests in brackets

For `Cl.O=C(CCCN1CCN(c2ccccc2)CC1)c1ccc(-c2ccc(Br)cc2)cc1` [4′-(4-bromophenyl)-4-(N-phenylpiperazino)butyrophenone-hydrochloride, reference compound], the “MIC value / growth inhibition of Staphylococcus aureus (result in words)” value ([1]; also after addition of higher concentrations) was “did not inhibit the growth”.
`CN(C)CCC(=O)c1ccc(-c2ccc(Br)cc2)cc1.Cl` [GG20-3, reference compound] was tested, and the MIC [1, 8] was 32 mg/L, the MIC [2, 9] was 32 mg/L and the MIC [3] was 16 mg/L. For the same compound, the MIC (Pseudomonas aeroginosa) was over 64 mg/L and the MIC (Escherichia coli) was over 64 mg/L.
For `CN(C)CCCC(=O)c1ccc(-c2ccc(Br)cc2)cc1.Cl` [GG20-4, 4′-(4-bromophenyl)-4-dimethylaminobutyrophenone-hydrochloride], the MIC [1, 8] was 4 to 8 mg/L, the MIC [2, 9] was 8 mg/L and the MIC [4] was 16 mg/L. The MIC [3] was 4 mg/L, the MIC [5] was 64 mg/L and the MIC [6] was 8 mg/L. It also gave an MIC (Pseudomonas aeroginosa) of over 64 mg/L and an MIC (Escherichia coli) of over 64 mg/L.
Work on `CN(C)CCCCC(=O)c1ccc(-c2ccc(Br)cc2)cc1.Cl` [GG20-5] yielded an MIC [1, 8] of 16 mg/L, an MIC ([7]; ATCC10231, Candida albicans, number of tests in brackets, read-out: MIC values C.a. (Yeast)) of 8 mg/L and an MIC [2, 9] of 16 mg/L.
`CN(C)CCCCc1ccc(-c2ccc(Br)cc2)cc1` [GG28, 4-bromo-4′-(4-dimethylaminobutyl) biphenyl hydrochloride] gave an MIC ([1]; ATCC6538, read-out: MIC values S.a.) of 13 mg/L, an MIC ([7]; ATCC10231, read-out: MIC values C.a. (Yeast)) of 8 mg/L and an MIC ([2]; Staphylococcus aureus) of 18 mg/L.
`CN(C)[C@@H]1C(=O)C(C(N)=O)=C(O)[C@@]2(O)C(=O)C3=C(O)c4c(O)cccc4[C@@](C)(O)[C@H]3C[C@@H]12` [Tetracyclin, reference compound] was tested, and the “MIC values MRSA” value [2, 9] was 64 mg/L (≈ 144 µM).
`CN[C@H](CC(C)C)C(=O)N[C@H]1C(=O)N[C@@H](CC(N)=O)C(=O)N[C@H]2C(=O)N[C@H]3C(=O)N[C@H](C(=O)N[C@H](C(=O)O)c4cc(O)cc(O)c4-c4cc3ccc4O)[C@H](O)c3ccc(c(Cl)c3)Oc3cc2cc(c3O[C@@H]2O[C@H](CO)[C@@H](O)[C@H](O)[C@H]2O[C@H]2C[C@](C)(N)[C@H](O)[C@H](C)O2)Oc2ccc(cc2Cl)[C@H]1O` [Vancomycin, reference compound] gave an MIC ([2]; Staphylococcus aureus) of under 2 mg/L.
